The target of this test is T1, SmcR (Vibrio vulnificus, UniProt Q9L8G8).
T1 construct: full-length, His-tagged SmcR (homodimer); residues 1–15 not modeled in the crystal structure
Put plainly: X-ray crystal structure ([…] Å) and isothermal titration calorimetry with purified protein; SAXS. The class given is binding.

By Kd is commonly meant the concentration at which binding is half-saturated.

T1 sequence (Q9L8G8 entry or part of it): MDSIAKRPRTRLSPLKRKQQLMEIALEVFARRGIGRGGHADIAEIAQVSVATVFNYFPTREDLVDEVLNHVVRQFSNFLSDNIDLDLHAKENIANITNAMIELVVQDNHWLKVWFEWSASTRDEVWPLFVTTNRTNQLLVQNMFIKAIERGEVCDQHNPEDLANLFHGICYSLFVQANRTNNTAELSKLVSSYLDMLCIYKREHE

Regarding `O=S(=O)(c1cccs1)n1ccc(-c2ccccc2)n1` [PTSP, 3-phenyl-1-(thiophen-2-ylsulfonyl)-1H-pyrazole], the dissociation constant Kd was around 1000 nM.

The values above are taken from paper PMC12977469, “Ligand binding drives proteolysis of the SmcR master transcription factor and controls quorum sensing-state transitions in Vibrio species” (mBio, 2026).
